Data: US20120088746A1, “AMIDE DERIVATIVES AS ION-CHANNEL LIGANDS AND PHARMACEUTICAL COMPOSITIONS AND METHODS OF USING THE SAME” (PFIZER INC., priority 2006, published 2012)

Target: human VR1 (Homo sapiens, UniProt Q8NER1)
Experiment: Acid stimulation assay (acid-induced intracellular calcium change, FDSS 6000)
Type: cell-based
Details: final assay buffer pH5.8, 15 min pre-incubation, read-out: IC50 (nM) Low pH
Description: VR1 antagonistic activity can be determined by the Ca^2+ imaging assay using human VR1 highly expressing cells. The cells that highly express human VR1 receptors are obtainable from several different conventional methods. The one standard method is cloning from human Dorsal Root Ganglion (DRG) or kidney according to the methods such as described in the journal article; Nature, 389, pp 816-824, 1997. Alternatively VR1 receptors highly expressing human keratinocytes are also known and published in the journal article (Biochemical and Biophysical Research Communications, 291, pp 124-129, 2002). […] Furthermore, the method to up regulate human VR1 gene, which is usually a silent gene or don't produce detectable level of VR1 receptors, is also available to obtain propriety cells. Such genetic modification method was described in detail; Nat. Biotechnol., 19, pp 440-445, 2001.
The cells that express human VR1 receptors were maintained in culture flask at 37° C. in an environment containing 5% CO2 until use in the assay. The intracellular Ca^2+ imaging assay to determine VR1 antagonistic activities were done by following procedures.
The culture medium was removed from the flask and fura-2/AM fluorescent calcium indicator was added to the flask at a concentration of 5 μM in the medium. The flask was placed in CO2 incubator and incubated for 1 hour. Then the cells expressing the human VR1 receptors were detached from the flask follow by washing with phosphate buffer saline, PBS(−) and re-suspended in assay buffer. The 80 tit of aliquot of cell suspension (3.75×10^5 cells/ml) was added to the assay plate and the cells were spun down by centrifuge (950 rpm, 20° C., 3 minutes).
(§1) The Acid-induced changes in the intracellular calcium concentration were monitored using FDSS 6000 (Hamamatsu Photonics, Japan), a fluorometric imaging system. The cell suspension in resting buffer (HBSS supplemented with 10 mM HEPES, pH 7.4) were pre-incubated with varying concentrations of the test compounds or resting buffer (buffer control) for 15 minutes at room temperature under the dark condition. The cells were automatically added the stimulating solution (HBSS supplemented with MES, final assay buffer pH5.8) by the FDSS 6000.
as §1, with “7.4) was” for “7.4) were”, “under” for “under the”, “dark conditions.” for “dark condition.”, “added to” for “added”

human VR1, sequence (Q8NER1 whole entry): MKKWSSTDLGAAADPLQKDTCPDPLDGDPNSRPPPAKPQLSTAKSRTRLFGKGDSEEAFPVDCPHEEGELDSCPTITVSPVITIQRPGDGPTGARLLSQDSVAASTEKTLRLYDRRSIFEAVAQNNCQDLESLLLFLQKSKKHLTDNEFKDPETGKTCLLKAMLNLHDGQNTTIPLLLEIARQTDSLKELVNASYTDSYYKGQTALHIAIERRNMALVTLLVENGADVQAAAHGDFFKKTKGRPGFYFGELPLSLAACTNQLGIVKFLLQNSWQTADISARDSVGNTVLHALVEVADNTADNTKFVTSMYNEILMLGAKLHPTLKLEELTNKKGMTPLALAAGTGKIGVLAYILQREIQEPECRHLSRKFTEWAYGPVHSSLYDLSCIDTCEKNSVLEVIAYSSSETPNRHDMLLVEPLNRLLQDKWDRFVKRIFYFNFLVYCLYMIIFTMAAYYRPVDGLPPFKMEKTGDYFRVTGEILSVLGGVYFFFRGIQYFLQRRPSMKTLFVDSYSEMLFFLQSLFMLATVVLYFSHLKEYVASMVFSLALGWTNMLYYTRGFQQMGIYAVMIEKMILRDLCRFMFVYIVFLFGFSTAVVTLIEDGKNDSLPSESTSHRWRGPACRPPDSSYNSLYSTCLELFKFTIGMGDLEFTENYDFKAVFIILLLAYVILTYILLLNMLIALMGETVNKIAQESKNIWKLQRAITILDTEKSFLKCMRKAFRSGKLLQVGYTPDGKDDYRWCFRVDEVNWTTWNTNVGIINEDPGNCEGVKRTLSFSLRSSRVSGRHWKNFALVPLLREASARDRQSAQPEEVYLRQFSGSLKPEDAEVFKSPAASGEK

For Cc1cc([C@@H](C)NC(=O)c2ccc3nc(C(F)(F)F)cc(OC4CCOCC4)c3c2)c(F)cc1NS(C)(=O)=O [Example 94, 4-(TETRAHYDRO-PYRAN-4-YLOXY)-2-TRIFLUOROMETHYL-QUINOLINE-6CARBOXYLIC ACID [(R)-1-(2-FLUORO-4-METHANESULFONYLAMINO-5-METHYL-PHENYL)-ETHYL]-AMIDE], which IC50 is on record?
Its IC50 is 35 nM.

CCOC(=O)N1CCN(c2nc(C(F)(F)F)nc3ccc(C(=O)N[C@H](C)c4cc(C)c(NS(C)(=O)=O)cc4F)cc23)CC1 [Example 96, 4-{6-[(R)-1-(2-FLUORO-4-METHANESULFONYLAMINO-5-METHYL-PHENYL)-ETHYLCARBAMOYL]-2-TRIFLUOROMETHYL-QUINAZOLIN-4-YL}-PIPERAZINE-1-CARBOXYLIC ACID ETHYL ESTER] was tested. Which IC50 did it give?
The IC50 was 41 nM.

With Cc1cc([C@@H](C)NC(=O)c2ccc3nc(C(F)(F)F)cc(NC4CCCCC4)c3c2)c(F)cc1NS(C)(=O)=O [Example 97, 4-CYCLOHEXYLAMINO-2-TRIFLUOROMETHYLQUINOLINE-6-CARBOXYLIC ACID [(R)-1-(2-FLUORO-4-METHANESULFONYLAMINO-5-METHYLPHENYL)ETHYL]AMIDE] as the compound, how does the IC50 read?
Its IC50 is 41 nM.

With Cc1cc([C@@H](C)NC(=O)c2ccc3nc(C(F)(F)F)cc(N4CCC(CO)CC4)c3c2)c(F)cc1NS(C)(=O)=O [Example 99, 4-(4-HYDROXYMETHYL-PIPERIDIN-1-YL)-2-TRIFLUOROMETHYL-QUINOLINE-6-CARBOXYLIC ACID [(R)-1-(2-FLUORO-4-METHANESULFONYLAMINO-5-METHYL-PHENYL)-ETHYL]-AMIDE] as the compound, how does the IC50 read?
The IC50 was 630 nM.

Which IC50 does the source give for Cc1cc([C@@H](C)NC(=O)c2ccc3cc(C(C)(O)C(F)(F)F)ccc3c2)c(F)cc1NS(C)(=O)=O (stereo partly drawn) [Example 101] here?
Its IC50 is 41 nM.

With Cc1cc([C@@H](C)NC(=O)c2ccc3cc(-n4cccn4)ccc3c2)c(F)cc1NS(C)(=O)=O [Example 105, 6-PYRAZOL-1-YL-NAPHTHALENE-2-CARBOXYLIC ACID [(R)-1-(2-FLUORO-4-METHANESULFONYLAMINO-5-METHYL-PHENYL)-ETHYL]-AMIDE] as the compound, how does the IC50 read?
Its IC50 is 147 nM.

For Cc1cc([C@@H](C)NC(=O)c2ccc3nc(C(F)(F)F)nc(N4CCC(Cc5ccccc5)CC4)c3c2)c(F)cc1NS(C)(=O)=O [Example 106, 4-(4-BENZYL-PIPERIDIN-1-YL)-2-TRIFLUOROMETHYL-QUINAZOLINE-6-CARBOXYLIC ACID [(R)-1-(2-FLUORO-4-METHANESULFONYLAMINO-5-METHYL-PHENYL)-ETHYL]-AMIDE], which IC50 is on record?
Its IC50 is 6 nM.

COC1CCN(c2ccc3cc(C(=O)N[C@H](C)c4cc(C)c(NS(C)(=O)=O)cc4F)ccc3n2)CC1 [Example 107] was tested. Which IC50 did it give?
The IC50 was 337 nM.

Cc1cc([C@@H](C)NC(=O)c2ccc3nc(C4(C)CC4)ccc3c2)c(F)cc1NS(C)(=O)=O [Example 108, N-((1R)-1-{2-FLUORO-5-METHYL-4-[(METHYLSULFONYL)AMINO]PHENYL}ETHYL)-2-(1-METHYLCYCLOPROPYL)QUINOLINE-6-CARBOXAMIDE] was tested. Which IC50 did it give?
The IC50 was 5 nM.

For Cc1cc([C@@H](C)NC(=O)c2ccc3nc(N4CCC(F)(F)CC4)ccc3c2)c(F)cc1NS(C)(=O)=O [Example 110, (R)-2-(4,4-DIFLUOROPIPERIDIN-1-YL)-N-(1-(2-FLUORO-5-METHYL-4-(METHYLSULFONAMIDO)PHENYL)ETHYL)QUINOLINE-6-CARBOXAMIDE], which IC50 is on record?
The IC50 was 94 nM.

With Cc1cc([C@@H](C)NC(=O)c2ccc3nc(C(F)(F)F)nc(N4CCOCC4)c3c2)c(F)cc1NS(C)(=O)=O [Example 112, 4-MORPHOLIN-4-YL-2-TRIFLUOROMETHYL-QUINAZOLINE-6-CARBOXYLIC ACID [(R)-1-(2-FLUORO-4-METHANESULFONYLAMINO-5-METHYL-PHENYL)-ETHYL]-AMIDE] as the compound, how does the IC50 read?
Its IC50 is 33 nM.

With Cc1cc([C@@H](C)NC(=O)c2ccc3nc(N4CCC(C)(C)CC4)ccc3c2)c(F)cc1NS(C)(=O)=O [Example 113] as the compound, how does the IC50 read?
The IC50 was 149 nM.
